Tests used:
[1] = system: B. cereus (IP 5832 strain); assay: Antibacterial activity in liquid medium; format: cell-based, Bacillus cereus; conditions: 15 h incubation; tested 0.75–12 µM; gentamicin 200 µM; Figures 3, 4
Description: (§1) Two S. aureus strains were used: a susceptible strain 209P and a clinical isolate strain 129B (resistant to antibiotics: benzylpenicillin, clindamycin, erythromycin, oxacillin, sulfamethoxazole, and vancomycin). Two MRSA strains were included: a susceptible strain ATCC 43300 (resistant to antibiotics: methicillin, oxacillin (beta-lactam antibiotics), ampicillin (https://www.atcc.org/products/43300 (accessed on 11 November 2023)) and a clinical isolate strain SA 180 (resistant to antibiotics: benzylpenicillin and oxacillin (beta-lactam antibiotics), ciprofloxacin, clindamycin, erythromycin, levomycetin, sulfamethoxazole, and vancomycin). One B. cereus was used: a susceptible strain, IP 5832. Two P. aeruginosa strains were included: a susceptible strain, ATCC 28753, and a resistant strain, 2943. Two E. coli strains were used: a susceptible strain, K12, and a susceptible strain, MG1655.
(§2) Determination of the growth for the bacteria S. aureus strain 209P, MRSA strain ATCC 43300, B. cereus strain IP 5832, P. aeruginosa strain ATCC 28753, and E. coli strain K12 was performed using Mueller–Hinton Broth (MHB) (Sigma-Aldrich, St. Louis, MO, USA). Bacteria of S. aureus (strain 129B) and MRSA (strain SA 180-F) were grown on the brain-heart infusion (BHI) medium, and bacteria of P. aeruginosa (strain 2943) and E. coli (strain MG1655) were grown on the LB medium. The preparation and co-incubation of peptides with bacteria were carried out as described previously. The samples were grown at 37 °C.

S. aureus (129B strain) = assay: Antibacterial activity in liquid medium, clinical isolate; format: cell-based, Staphylococcus aureus; conditions: BHI medium, 37 °C
Description: as §1, §2

[2] = system: P. aeruginosa (2943 strain); assay: Antibacterial activity in liquid medium, resistant strain; format: cell-based, Pseudomonas aeruginosa; conditions: LB medium, 37 °C
Description: as §1, §2

[3] = system: P. aeruginosa (ATCC 28753 strain); assay: Antibacterial activity in liquid medium; format: cell-based, Pseudomonas aeruginosa; conditions: for Concentrations at which the peptide showed an antimicrobial effect (comparable to gentamicin): 15 h incubation, tested 0.75–12 µM, gentamicin 200 µM, Figures 3, 4; for Peptide Activity in Liquid Medium after 15 h of Incubation (Gentamicin as Positive Control): ATCC 28753, Mueller–Hinton broth, 37 °C, 2% DMSO
Description: as §1, §2

S. aureus (209P strain) = assay: Antibacterial activity in liquid medium; format: cell-based, Staphylococcus aureus; conditions: for Peptide Activity in Liquid Medium after 15 h of Incubation (Gentamicin as Positive Control): 209P strain, Mueller–Hinton broth, 37 °C, 2% DMSO; for Concentrations at which the peptide showed an antimicrobial effect (comparable to gentamicin): 15 h incubation, tested 0.75–12 µM, gentamicin 200 µM, Figures 3, 4
Description: as §1, §2

E. coli (MG1655 strain) = assay: Antibacterial activity in liquid medium; format: cell-based, Escherichia coli; conditions: LB medium, 37 °C
Description: as §1, §2

E. coli (K12 strain) = assay: Antibacterial activity in liquid medium; format: cell-based, Escherichia coli; conditions: for Peptide Activity in Liquid Medium after 15 h of Incubation (Gentamicin as Positive Control): K12 strain, Mueller–Hinton broth, 37 °C, 2% DMSO; for Concentrations at which the peptide showed an antimicrobial effect (comparable to gentamicin): 15 h incubation, tested 0.75–12 µM, gentamicin 200 µM, Figures 3, 4
Description: as §1, §2

BT-474 cells = assay: Cytostatic effect, cell cycle phases and mitotic activity; format: cell-based, human; conditions: 50 μg/mL, with and without pre-incubation
Experimental: (§3) BT474 human breast duct carcinoma cells were obtained from the American Collection of Type Cell Cultures (Manassas, Virginia, VA, USA). BT474 cells were cultured in DMEM medium (Sigma-Aldrich, St. Louis, MO, USA) supplemented with 10% fetal calf serum (Gibco, Waltham, MA, USA) and 40 μg/mL gentamicin sulfate (Sigma-Aldrich, St. Louis, MO, USA) at 37 °C under conditions of 5% CO2 in the air.
To study the distribution of cells over the phases of the cell cycle, cells were collected, washed in phosphate-buffered saline (300 g, 5 min), and fixed with 70% ethanol (24 h, −20 °C). Staining was carried out for 15 min at 37 °C in the following medium: phosphate-buffered saline, 0.1% Triton X100, 10 μg/mL propidium iodide, and 100 μg/mL RNase (Biolot, St. Petersburg, Russia). The analysis was performed using a BD Accuri C6 flow cytometer (BD Bioscience, San Jose, CA, USA). The obtained results were processed in the ModFit LT 4.1 program.
(§4) To determine the mitotic activity, the cells were washed in phosphate-buffered saline (300 g, 5 min) and fixed with 70% ethanol (24 h, −20 °C). Then, they were stained with bisBenzimide H 33342 fluorescent dye at a concentration of 1 μg/mL for 10 min at room temperature, and the number of mitotic cells was counted using a DM 6000 fluorescent microscope (Leica, Wetzlar, Germany). At least 500 cells were analyzed.

MRSA (ATCC 43300 strain) = assay: Antibacterial activity in liquid medium; format: cell-based, Methicillin-resistant Staphylococcus aureus; conditions: for Concentrations at which the peptide showed an antimicrobial effect (comparable to gentamicin): 15 h incubation, tested 0.75–12 µM, gentamicin 200 µM, Figures 3, 4; for Peptide Activity in Liquid Medium after 15 h of Incubation (Gentamicin as Positive Control): ATCC 43300 strain, Mueller–Hinton broth, 37 °C, 2% DMSO
Description: as §1, §2

MRSA (SA 180-F strain) = assay: Antibacterial activity in liquid medium, clinical isolate; format: cell-based, Methicillin-resistant Staphylococcus aureus; conditions: BHI medium, 37 °C
Description: as §1, §2

human skin fibroblasts [4] = assay: Cytostatic effect, cell cycle phases and mitotic activity; format: cell-based; conditions: 50 μg/mL, with and without pre-incubation
Experimental: (§5) The culture of normal human fibroblasts was obtained from the skin areas of the inner surface of the forearm of healthy volunteers after their consent using the explant method. All volunteers gave their informed consent for inclusion before they participated in the study. The study was conducted in accordance with the Declaration of Helsinki, and the protocol was approved by the Ethics Committee of ITEB RAS No. 43/2023. The culture of normal human fibroblasts was obtained from the skin areas of the inner surface of the forearm using the explant method. A 5 × 5 mm skin explant was washed for several minutes in phosphate buffer containing 400 μg/mL gentamicin sulfate. […] After the release of cells from the fragments, the cells were detached from the surface of the culture plastic, and the number of cells was determined. […]
as §4

human skin fibroblasts [5] = assay: Cytotoxic effect, calcein AM / propidium iodide flow cytometry; format: cell-based; conditions: 50 µg/mL, with and without pre-incubation; 96 h
Experimental: as §5
The number of living and dead cells was determined by staining cells with the fluorescent dyes calcein AM (Sigma-Aldrich, St. Louis, MO, USA) and propidium iodide (Sigma-Aldrich, St. Louis, MO, USA). […] Live and dead cells were analyzed using a BD Accuri C6 flow cytometer (BD Bioscience, San Jose, CA, USA).

BT474 cells = assay: as above; format: cell-based, human; conditions: 50 µg/mL, with and without pre-incubation; 96 h
Experimental: as §3
The number of living and dead cells was determined by staining cells with the fluorescent dyes calcein AM (Sigma-Aldrich, St. Louis, MO, USA) and propidium iodide (Sigma-Aldrich, St. Louis, MO, USA). Cells were detached from the surface of the samples using an Accutase cocktail. Cells were stained in L-15 medium with 1% fetal bovine serum containing 1 μg/mL calcein AM and 2 μg/mL propidium iodide for 25 min at 37 °C. Live and dead cells were analyzed using a BD Accuri C6 flow cytometer (BD Bioscience, San Jose, CA, USA).

[6] = Thioflavin T fluorescence assay for amyloid-like aggregates; format: physicochemical; conditions: 24 h, 37 °C, 450 rpm; 50 mM TrisHCl pH 7.5, 150 mM NaCl, 20% DMSO; 200 µM ThT; peptide up to 190–380 μM (1 mg/mL)
Description: ThT, a benzothiazole dye, is known for its unique property of binding to amyloids and amyloid-like fibrils. This interaction results in a substantial increase in the fluorescence intensity of ThT, typically observed at a wavelength of around 485 nm.
The spectra of fluorescence intensity of free ThT and in solution with individual peptides were studied by us using the method of fluorescence spectroscopy as described previously.

[7] = over the tested concentration range; cited from earlier work
Experimental: Analysis of the cytostatic effect was performed on the basis of the distribution of cells by phases of the cell cycle and mitotic activity.

bacteria = conditions: cited from earlier work
Description: Generally, the mechanisms by which AMPs act against bacteria depend on the properties of the bacterial cell wall. Gram-positive bacteria have a thick peptidoglycan layer, while Gram-negative bacteria have an outer membrane and a thinner peptidoglycan layer, which can impact the effectiveness of different antimicrobial strategies. […] If the peptide contained only the Antp fragment, then, in general, its antimicrobial activity was lower com ...

Row | Sequence | Concentrations at which the peptide showed an antimicrobial effect (comparable to gentamicin) [1] [µM] | Peptide Activity in Liquid Medium after 24 h of Incubation (Meropenem as a Positive Control) (S. aureus (129B strain)) | Peptide Activity in Liquid Medium after 24 h of Incubation (Meropenem as a Positive Control) [2] | Concentrations at which the peptide showed an antimicrobial effect (comparable to gentamicin) [3] | Peptide Activity in Liquid Medium after 15 h of Incubation (Gentamicin as Positive Control) [3] | Peptide Activity in Liquid Medium after 15 h of Incubation (Gentamicin as Positive Control) (S. aureus (209P strain)) | Concentrations at which the peptide showed an antimicrobial effect (comparable to gentamicin) (S. aureus (209P strain)) | Peptide Activity in Liquid Medium after 24 h of Incubation (Meropenem as a Positive Control) (E. coli (MG1655 strain)) | Peptide Activity in Liquid Medium after 15 h of Incubation (Gentamicin as Positive Control) (E. coli (K12 strain)) | Proliferative activity (cytostatic effect) (BT-474 cells) | Concentrations at which the peptide showed an antimicrobial effect (comparable to gentamicin) (MRSA (ATCC 43300 strain)) | Peptide Activity in Liquid Medium after 15 h of Incubation (Gentamicin as Positive Control) (MRSA (ATCC 43300 strain)) | Peptide Activity in Liquid Medium after 24 h of Incubation (Meropenem as a Positive Control) (MRSA (SA 180-F strain)) | Proliferative activity (cytostatic effect) (human skin fibroblasts [4]) | Cytotoxic effect (human skin fibroblasts [5]) | Cytotoxic effect (BT474 cells) | ThT fluorescence intensity at ~485 nm [6] | Cytotoxic effect [7] | Concentrations at which the peptide showed an antimicrobial effect (comparable to gentamicin) (E. coli (K12 strain)) | Concentration with antibacterial activity, amyloidogenic fragment alone (bacteria) [µM]
1 | ITDFGIFIGLGGGGSRQIKIWFQNRRMKWKK [I31K^P, Amyloidogenic fragment of S1 from P. aeruginosa + CPP2 (Antennapedia fragment), 31 a.a] | 12 | >2750 µM, 129B strain | >2750 µM, 2943 strain | not found | >12 µM, ATCC 28753 | >12 µM, 209P strain | did not show strong effects | >2750 µM, MG1655 strain | >12 µM, K12 strain | did not even suppress their proliferative activity | did not show strong effects | >12 µM, ATCC 43300 strain | >2750 µM, SA 180-F strain | did not even suppress their proliferative activity | lacked cytotoxic effects | lacked cytotoxic effects |  |  |  | 
2 | RKKRRQRRRGGGGITDFGIFIGLGGGGSRQIKIWFQNRRMKWKK [R44K^P, CPP1 + amyloidogenic fragment of S1 from P. aeruginosa + CPP2, dihybrid peptide, 44 a.a] | 3 to 12 | >1930 µM, 129B strain | ≥1930 µM, 2943 strain | 6 to 12 µM | 6 µM | 12 µM | 12 µM | >1930 µM, MG1655 strain | >12 µM, K12 strain |  | 12 µM | 12 µM | >1930 µM, SA 180-F strain |  |  |  |  |  |  | 
3 | RKKRRQRRRGGGGITDFGIFIGL [R23L^P] | 1.5 to 12 | >3780 µM, 129B strain | ≥3780 µM, 2943 strain | 6 to 12 µM |  | 12 µM | 12 µM | ≥3780 µM, MG1655 strain | 12 µM | did not even suppress their proliferative activity | 12 µM | 12 µM | >3780 µM, SA 180-F strain | did not even suppress their proliferative activity | lacked cytotoxic effects | lacked cytotoxic effects | multiple increase in the fluorescence intensity of ThT | not been shown to have significant effects | 12 µM | 
4 | VTDFGVFVEIGGGGSRQIKIWFQNRRMKWKK [V31K^T] |  | >2730 µM, 129B strain | >2730 µM, 2943 strain |  | >12 µM, ATCC 28753 | >12 µM, 209P strain |  | >2730 µM, MG1655 strain | >12 µM, K12 strain |  |  | >12 µM, ATCC 43300 strain | >2730 µM, SA 180-F strain |  |  |  |  |  | no significant antimicrobial effects | 
5 | VTDFGVFVEI [Amyloidogenic fragment from S1 T. thermophilus] |  |  |  |  |  |  |  |  |  |  |  |  |  |  |  |  |  |  |  | 913

— article PMC10706425, “Enhancing the Antimicrobial Properties of Peptides through Cell-Penetrating Peptide Conjugation: A Comprehensive Assessment” (International Journal of Molecular Sciences, 2023)
